From US20150368242A1, “NOVEL TETRAHYDROPYRIDOPYRIMIDINONE DERIVATIVE” (Ajinomoto Co., Inc., priority 2013, published 2015) come the findings set out here.

Assay [1] deals with T1, recombinant human MGAT2 enzyme (Homo sapiens, UniProt Q3SYC2).
T1 construct: made in house; host or cells: CHO-K1 (Jump-In CHO-K1 Kit, Life Technologies); microsomal fraction used as the enzyme solution
Briefly: Test for human MGAT2 activity inhibitory action (14C-oleoyl CoA, recombinant enzyme microsomes). Type of assay: biochemical. The arrangement: key to Potency relative to Comparative Example 1 (higher = more potent): % inhibition = {1−(C−B)/(A−B)}×100, B = 10 μM Comparative Example 1. In short, it runs like this: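 Microsomes from CHO-K1 cells expressing human MGAT2 (0.67 μg/mL) reacted 30 min at 37 °C with 50 μM 2-monooleoyl glycerol, 50 μM oleoyl CoA, 2.2 μM 1-14C-oleoyl CoA and 8.3 μM orlistat in 50 mM Tris pH 7.4, 6 mM MgCl2, 2 mg/mL BSA, 0.3% DMSO. Heptane-extracted 14C counted; inhibition normalized between no-compound and 10 μM reference-compound controls.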

For assay [2], the system named is orally lipid-loaded mouse model (C57BL/6J mice). The assay can be described thus: Test for lipid absorption inhibitory action (orally lipid-loaded mouse model). Particulars: for lipid absorption inhibitory action (in words): 30 mg/kg, Comparative Example 1 at 100 mg/kg; for Lipid absorption inhibition ratio (%): plasma neutral fat AUC up to 6 hours after corn oil. Type of assay: in vivo. As to the method:
The lipid absorption inhibitory action of the compounds of Examples 5 and 60 and the compound of Comparative Example 1 was examined in an orally lipid-loaded mouse model. In this test, 10 to 11-week old male C57BL/6J mice (CLEA Japan, Inc.) were used. After the mice were fasted for 17 hours from the preceding day, blood was collected from the fundus, and further the mice were subjected to forced oral administration of one of the compounds or the medium (0.5% methyl cellulose). Thirty minutes after the administration, tyloxapol (500 mg/kg) was administered into the tail vein, and corn oil (200 μl) was orally administered (n=5-6). Blood was collected via the tail vein 2, 4, and 6 hours after the administration of corn oil, and plasma was obtained by centrifuging the blood. The neutral fat concentration in the plasma was measured by using Triglyceride E-Test Wako (Wako Pure Chemical Industries, Ltd.). The neutral fat concentration in the plasma before the administration of the compound was taken as the value at 0 hours, and the area under the curve (AUC) of the neutral fat concentration in the plasma up to 6 hours after the administration of corn oil was calculated. From the average value of the AUC of each administration group, the lipid absorption inhibition ratio was obtained by using the following formula.
Lipid absorption inhibition ratio (%)=(Average value of AUC of medium administration group-Average value of AUC of compound administration group)/Average value of AUC of medium administration group×100

Assay [3] concerns C57BL/6J mice fed on high-fat diet (diet-induced obesity mouse model). The assay can be described thus: Test for anti-obesity action in high-fat diet fed mice. The assay is classed as in vivo. Particulars: for Body Fat Weight, average value (difference from medium administration group) / Fat-Free Weight, average value (difference from medium administration group): Day 21, quantitative NMR; for Percent Body Weight Change, average value (difference from medium administration group): forced oral once per day Day 1 to Day 22, Day 23, n=8. The source says: The anti-obesity action of the compound of Example 5 was examined in C57BL/6J mice fed on high-fat diet (Research Diets D12492). Thirteen-week old male C57BL/6J-DIO mice (CHARLES RIVER LABORATORIES JAPAN, INC.) were purchased, and fed in animal facilities under a 12-hour light/dark cycle for 13 weeks on the diet of D12492. From six days before the administration of the compound, the animals were habituated by inserting a tube for forced oral administration into the stomach once per day. One day before the administration of the compound, the mice were randomized on the basis of the body weight, and divided into groups (n=8). From Day 1 to Day 22, forced oral administration of the compound or a medium (0.5% methyl cellulose) was conducted once per day. The body weight was measured every day, and the body fat weight and the fat-free weight were measured by using a quantitative NMR apparatus (EcoMRI, Hitachi Aloka Medical, Ltd.) on Day 21.
The percent body weight change (Day 23, Table 6), the body fat weight (Day 21, Table 7), and the fat-free weight (Day 21, Table 8) were each expressed in terms of the difference between the average value of the compound administration group and the average value of the medium administration group, and the difference between the groups was subjected to Dunnett's multiple comparison test (significance level p=0.05). Note that, in Tables 6 to 8, “n.s.” means a non-significant difference.

The mark [4] stands for this setting: Table 5, relative to Comparative Example 1 measured in the same run.
[5] abbreviates: Second Test (Table 4), read-out: IC50.
[6] abbreviates: 30 mg/kg, Dunnett's test versus medium group.
Where [7] appears, read: Second Test (Table 4), relative to Comparative Example 1.
Where [8] appears, read: Table 5, Examples 25 to 60, same method, read-out: IC50.

Each structure is given as a SMILES string. Where “and” joins values, the source holds several entries; their conditions need not be identical. Equal values may be shown once. Where a name gives a salt, the structure may show the parent alone. Read-outs that look alike come from different tables or passages of the source. Where only a bound is given, the exact number is not on record here.

T1 sequence (Q3SYC2 whole entry): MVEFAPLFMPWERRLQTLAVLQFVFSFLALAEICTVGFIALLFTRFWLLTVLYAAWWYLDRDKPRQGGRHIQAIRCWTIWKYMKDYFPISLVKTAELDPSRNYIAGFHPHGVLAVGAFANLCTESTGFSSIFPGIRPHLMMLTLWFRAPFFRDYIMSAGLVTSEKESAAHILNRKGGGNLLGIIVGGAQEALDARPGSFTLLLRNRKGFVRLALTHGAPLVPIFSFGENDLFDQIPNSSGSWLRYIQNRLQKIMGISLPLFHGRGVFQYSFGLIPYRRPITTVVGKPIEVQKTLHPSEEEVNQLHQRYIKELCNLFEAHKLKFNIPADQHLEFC

Turning to `O=C(CCNCC1COc2ccccc2O1)N1CCc2nc(SC3CCC3)n(-c3ccccc3)c(=O)c2C1` (stereo not drawn) [Example 60, 2-cyclobutylsulfanyl-6-[3-(2,3-dihydro-1,4-benzodioxin-3-ylmethylamino)propanoyl]-3-phenyl-7,8-dihydro-5H-pyrido[4,3-d]pyrimidin-4-one trifluoroacetate], the IC50 in assay [1] (IC50 (nM), Table 5, Examples 25 to 60, same method) amounted to 1.1 nM. Besides, in assay [1] (setting [4]), the “vs Comp. Ex. 1” value was found to be 140. Moreover, the “lipid absorption inhibitory action (in words)” value in assay [2] is given as “comparable to that of the compound of Example 5”. Besides, the “Lipid absorption inhibition ratio (%)” value in assay [2] (Test 3, 30 mg/kg oral) was 42%.
With `COc1ccc(CNc2nc3c(c(=O)n2-c2ccccc2)CN(C(=O)Nc2ccc(C(F)(F)F)cc2)CC3)cc1` [Comparative Example 1, reference compound], the IC50 was 223 nM in assay [1] (First Test (Table 3), read-out: IC50); 303 nM in assay [1] (setting [5]); 210 nM and 170 nM and 150 nM and 140 nM and 295 nM and 137 nM and 180 nM and 250 nM and 300 nM and 270 nM and 240 nM and 260 nM and 160 nM and 244 nM and 200 nM in assay [1] (Table 5, Comparative Example 1 measured alongside the Example, read-out: IC50 (nM) of Comp. Ex. 1). Besides, the “Lipid absorption inhibition ratio (%)” value came to 34% in assay [2] (Test 1, 30 mg/kg oral); 44% in assay [2] (Test 1, 100 mg/kg oral); 41% in assay [2] (Test 2, 100 mg/kg oral).
With `O=C(CNCCCCCOc1ccc(C(F)(F)F)cc1)N1CCc2nc(SC3CCC3)n(-c3ccccc3)c(=O)c2C1` [Example 5, 2-cyclobutylsulfanyl-3-phenyl-6-[2-[5-[4-(trifluoromethyl)phenoxy]pentylamino]acetyl]-7,8-dihydro-5H-pyrido[4,3-d]pyrimidin-4-one trifluoroacetate], the “vs Comp. Ex. 1” value in assay [1] (First Test (Table 3), relative to Comparative Example 1, greater value = higher inhibitory action) amounted to 349. In addition, in assay [1] (IC50 (nM), First Test (Table 3)), the IC50 came out at 0.64 nM. In addition, the figures for the “Body Fat Weight, average value (difference from medium administration group)” value in assay [3] (10 mg/kg oral once per day) and in assay [3] (30 mg/kg oral once per day) were -2.22 g and -4.26 g, respectively. For the same compound, the “Fat-Free Weight, average value (difference from medium administration group)” value in assay [3] (10 mg/kg oral once per day) is -0.34 g; in assay [3] (30 mg/kg oral once per day), -0.98 g. The “Percent Body Weight Change, average value (difference from medium administration group)” value in assay [3] (10 mg/kg) was −4.15%; in assay [3] (30 mg/kg), −9.56%. In addition, the “body fat weight (in words)” value in assay [3] (setting [6]) is reported as “significantly lowered”. Besides, the “percent body weight change (in words)” value in assay [3] (setting [6]) is reported as “significantly lowered”. Further, the “decrease of the fat-free body weight (in words)” value in assay [3] (10 and 30 mg/kg, Dunnett's test versus medium group) is listed as “did not have a statistically significant difference”. The “lipid absorption inhibitory action (in words)” value in assay [2] is recorded as “not inferior to that of the compound of Comparative Example 1”. Further, the “Lipid absorption inhibition ratio (%)” value in assay [2] (Test 2, 30 mg/kg oral) is recorded as 45%; in assay [2] (Test 3, 30 mg/kg oral) it was 42%.
`O=C(CCNCCc1c[nH]c2ccccc12)N1CCc2nc(SC3CCC3)n(-c3ccccc3)c(=O)c2C1` [Example 23, 2-cyclobutylsulfanyl-6-[3-[2-(1H-indol-3-yl)ethylamino]propanoyl]-3-phenyl-7,8-dihydro-5H-pyrido[4,3-d]pyrimidin-4-one trifluoroacetate)]: the concentration for half-maximal inhibition (IC50) in assay [1] (setting [5]) worked out at 1.6 nM. In assay [1] (setting [7]), the “Potency relative to Comparative Example 1 (higher = more potent)” value came to 193.
Consider `O=C(CCNCc1ccccc1)N1CCc2nc(SC3CCC3)n(CC3CCC3)c(=O)c2C1` [Example 12, 6-[3-(benzylamino)propanoyl]-3-(cyclobutylmethyl)-2-cyclobutylsulfanyl-7,8-dihydro-4H-pyrido[4,3-d]pyrimidin-4-one trifluoroacetate], for which the IC50 in assay [1] (setting [5]) stood at 1.4 nM. Also, in assay [1] (setting [7]), the “Potency relative to Comparative Example 1 (higher = more potent)” value was 216.
Consider `O=C(CCNCC#CCOc1ccc(C(F)(F)F)cc1)N1CCc2nc(SC3CCC3)n(-c3ccccc3)c(=O)c2C1` [Example 59, 2-cyclobutylsulfanyl-3-phenyl-6-[3-[4-[4-(trifluoromethyl)phenoxy]but-2-ynylamino]propanoyl]-7,8-dihydro-5H-pyrido[4,3-d]pyrimidin-4-one trifluoroacetate], for which the 50% inhibitory concentration (IC50) in assay [1] (setting [8]) is 2.2 nM. The “Potency relative to Comparative Example 1 (higher = more potent)” value in assay [1] (setting [4]) worked out at 117.
`O=C(CCNCc1ccccc1)N1CCc2nc(SC3CCC3)n(Cc3ccco3)c(=O)c2C1` [Example 14, 6-[3-(benzylamino)propanoyl]-2-cyclobutylsulfanyl-3-(2-furylmethyl)-7,8-dihydro-5H-pyrido[4,3-d]pyrimidin-4-one trifluoroacetate]: in assay [1] (setting [5]), the IC50 came out at 4.7 nM. Moreover, the “Potency relative to Comparative Example 1 (higher = more potent)” value in assay [1] (setting [7]) is 65.
On to `O=C(CCNCCOc1ccc(F)cc1)N1CCc2nc(SC3CCC3)n(-c3ccccc3)c(=O)c2C1` [Example 46, 2-cyclobutylsulfanyl-6-[3-[2-(4-fluorophenoxy)ethylamino]propanoyl]-3-phenyl-7,8-dihydro-5H-pyrido[4,3-d]pyrimidin-4-one trifluoroacetate], for which the half-maximal inhibitory concentration (IC50) in assay [1] (setting [8]) is under 1 nM.
